Experimental data taken from patent publication US20210322508A1, “PEPTIDES AND COMPOSITIONS FOR TARGETED TREATMENT AND IMAGING” (SIGNABLOK, INC., priority 2018, published 2021).
Residues, ends and D or L forms follow the SMILES beside them.

Key:
[1] = system: LPS-stimulated macrophages; assay: cytokine production by LPS-stimulated macrophages; format: cell-based, murine; conditions: 24 h at 37° C.; for cytokine release by LPS-stimulated macrophages in the presence of HDL: with HDL
Protocol: FIG. 33 presents exemplary data showing cytokine production by LPS-stimulated macrophages incubated for 24 h at 37° C. with GF9, G-TE21, G-HV21 and G-KV21 in the presence of HDL.

J774A.1 macrophages = assay: In vitro macrophage endocytosis of fluorescent peptides with or without HDL; format: cell-based, mouse; conditions: for receptors mediating in vitro macrophage endocytosis: pre-incubated with HDL, fucoidan, BLT-1, cytochalasin D; for in vitro macrophage endocytosis, effect of pre-incubation with HDL: rho B-labeled peptides, 1 mg/ml HDL
Protocol: The BALB/c murine macrophage cell line J774A.1 (ATCC TIB-67) were obtained from the American Type Culture Collection (ATCC, Manassas, Va.). The macrophage cells were cultured at 37° C. with 5% CO2 in Dulbecco's modified Eagle's medium (DMEM) (Cellgro, Mediatech Inc, Manassas, Va.) with 2 mM glutamine, 100 U/ml penicillin, 0.1 mg/ml streptomycin, and 10% fetal bovine serum (FBS) (Cellgro, Mediatech Inc, Manassas, Va.) and grown to approximately 90% of confluence in 6-well tissue culture plates (Corning, Tewksbury, Mass.). Cells were incubated for varied time periods from 4 to 24 h at 37° C. with fluorescently labeled peptides (pre-incubated with 1 mg/ml HDL) at a concentration of 4 μM rhodamine B (rho-B). After incubation, cells were washed twice with PBS and lysed using Promega passive lysis buffer (Promega, Madison, Wis.). The rho B fluorescence was measured in the lysates with a 540 nm excitation and a 590 nm emission filters using the Gemini EM fluorescence microplate reader (Molecular Devices, Sunnyvale, Calif.). The protein concentration in the lysates was determined using the Bradford reagent (Bio-Rad, Richmond, Calif.) and the SpectraMax 190 microplate reader (Molecular Devices, Sunnyvale, Calif.).
In one embodiment, after reaching target confluency, cells were incubated for 1 h in medium with or without fucoidan (400 μg/mL), BLT-1 (10 μM) or cytochalasin D (40 μM), Cells were subsequently incubated for 4 h and 22 h at 37° C. in medium containing 2 μM of rho B-labeled peptides G-KV21 and G-HV21 (as calculated for rho B) that were pre-incubated with 1 mg/ml HDL. After incubation, cells were washed twice with PBS and lysed using Promega passive lysis buffer. The rho B fluorescence and protein concentration were measured in the lysates as described above.

[2] = system: human pancreatic cancer BxPC-3 xenograft; conditions: for intratumoral macrophage infiltration (F4/80 staining): 25 mg/kg GF9, 2.5 mg/kg GF9-sSLP/GF9-LPC, 4 mg/kg GA/E31-sSLP where stated; for tumor growth: i.p. 5qw, 25 mg/kg GF9, 2.5 mg/kg GF9-SLP, 4 mg/kg GA/E31-SLP where stated
Protocol: (B) F4/80 staining. Results are expressed as the mean±SEM (n=4 mice per group). *, p<0.05; **, p<0.01, ****, p<0.0001 (versus vehicle). […] Scale bar=200 μm.
Treatment persisted for 31, 29 and 29 days for mice containing AsPC-1, BxPC-3 and Capan-1 tumor xenografts, respectively. Mean tumor volumes are calculated and plotted. All results are expressed as the mean±SEM (n=6 mice per group). On the final day of treatment, tumor volumes were compared between the drug-treated and control groups. **, p<0.01; ***, p<0.001; ****, p<0.0001 (versus vehicle).
As described herein, after tumors in AsPC-1-, BxPC-3- or Capan-1-bearing mice reached a volume of 150-200 mm^3, mice were randomized into groups and intraperitoneally (i.p.) administered once daily 5 times per week (5qw) with either vehicle (black diamonds), GA/E31-dSLP (light gray triangles) or GA/E31-sSLP (white triangles) at indicated doses. Treatment persisted for 31, 29 and 29 days for mice containing AsPC-1, BxPC-3 and Capan-1 tumor xenografts, respectively. Mean tumor volumes are calculated and plotted. All results are expressed as the mean±SEM (n=6 mice per group). On the final day of treatment, tumor volumes were compared between the drug-treated and control groups. **, p<0.01; ***, p<0.001; ****, p<0.0001 (versus vehicle).
Treatment persisted for 31, 29 and 29 days for mice containing AsPC-1, BxPC-3 and Capan-1 tumor xenografts, respectively. Kaplan-Meier survival curves are shown for AsPC-1-, BxPC-3- or Capan-1-bearing mice (n=6 mice per group). **, p<0.01; ***, p<0.001 by log-rank test (versus vehicle).
Serum CSF1, VEGF and IL-6 levels were analyzed on study days 1 and 8 in BxPC-3-bearing mice treated daily 5 times per week (5qw) with either vehicle (black diamonds), GF9 (white circles) or GF9-LPC (black circles) at indicated doses. Results are expressed as the mean±SEM (n=5 mice per group). *, p<0.05; **, p<0.01; ***, p<0.001; ****, p<0.0001 (versus vehicle).

[3] = system: C57BL/6 mice with LPS-induced septic shock; assay: LPS-induced septic shock: survival; format: in vivo, mouse; conditions: free peptides, at this dose; 30 mg/kg LPS i.p.
Protocol: One hour later, mice received i.p. injection of 30 mg/kg LPS from E. coli 055:B5 (Sigma). In some experiments, all formulations were i.p. administered 1 and 3 h after LPS injection. The viability of mice was examined hourly. Body weights were measured daily. In all of the animal experiments, blood samples were collected via a sub-mandibular (cheek) bleed at 90 min after administration of LPS. Statistical analysis of survival curves was performed by the Kaplan-Meier test. Comparisons were made using two-tailed Student's t test. The production of cytokines in serum was measured by a standard sandwich cytokine ELISA procedure using TNF-alpha, IL-1beta and IL-6 ELISA kits (Pierce Biotechnology, Thermo Scientific, Rockford, Ill.) according to the instructions of the manufacturer. Statistical significances in cytokine analysis ELISA data were determined by two-tailed Student's t test.
Naïve, female C57BL/6 mice at 8 to 10 weeks of age (18 to 21 g) from the Jackson Laboratory were randomly grouped (10 mice per group) and i.p. injected with vehicle or the indicated doses of dexamethasone (DEX), GF9, G-TE21, G-HV21 and G-KV21. One hour later, mice received i.p. injection of 30 mg/kg LPS from E. coli 055:B5 (Sigma). […] Body weights were measured daily. […] Statistical significances in cytokine analysis ELISA data were determined by two-tailed Student's t test.

Compound	cytokine release by LPS-stimulated macrophages in the presence of HDL [1]	cytokine production by LPS-stimulated macrophages in the absence of HDL ([1]; without HDL)	receptors mediating in vitro macrophage endocytosis (J774A.1 macrophages)	in vitro macrophage endocytosis, effect of pre-incubation with HDL (J774A.1 macrophages)	intratumoral macrophage infiltration (F4/80 staining) [2]	tumor growth [2]	protection from LPS-induced septic shock / survival [3]
CC(C)C[C@H](NC(=O)[C@H](Cc1ccccc1)NC(=O)CN)C(=O)N[C@@H](CO)C(=O)N[C@@H](CCCCN)C(=O)N[C@@H](CO)C(=O)N[C@@H](CC(C)C)C(=O)N[C@H](C(=O)N[C@@H](Cc1ccccc1)C(=O)NCC(=O)N[C@@H](CCC(=O)O)C(=O)N[C@@H](CCC(=O)O)C(=O)N[C@@H](CC[S+](C)[O-])C(=O)N[C@@H](CCCNC(=N)N)C(=O)N[C@@H](CC(=O)O)C(=O)N[C@@H](CCCNC(=N)N)C(=O)N[C@@H](C)C(=O)N[C@@H](CCCNC(=N)N)C(=O)N[C@@H](C)C(=O)N[C@@H](Cc1c[nH]cn1)C(=O)N[C@H](C(=O)O)C(C)C)C(C)C (stereo partly shown) [G-HV21] (HELM PEPTIDE1{G.F.L.S.K.S.L.V.F.G.E.E.[CS(=O)CC[C@H](N[*:1])C(=O)[*:2]].R.D.R.A.R.A.H.V}$$$$V2.0)	significantly inhibit the cytokine release	does not affect the cytokine production	mediated with scavenger receptors (SR) A (SR-A) and BI (SR-B1) with SR-A being the predominant mediator	enhances in vitro macrophage endocytosis	reduce macrophage infiltration into the tumor	significantly inhibits the tumor growth	protect mice from LPS-induced septic shock and prolongs survival of septic mice
CC(C)C[C@H](NC(=O)[C@H](Cc1ccccc1)NC(=O)CN)C(=O)N[C@@H](CO)C(=O)N[C@@H](CCCCN)C(=O)N[C@@H](CO)C(=O)N[C@@H](CC(C)C)C(=O)N[C@H](C(=O)N[C@@H](Cc1ccccc1)C(=O)N[C@@H](Cc1c[nH]c2ccccc12)C(=O)N[C@@H](CCC(N)=O)C(=O)N[C@@H](CCC(=O)O)C(=O)N[C@@H](CCC(=O)O)C(=O)N[C@@H](CC[S+](C)[O-])C(=O)N[C@@H](CCC(=O)O)C(=O)N[C@@H](CC(C)C)C(=O)N[C@@H](Cc1ccc(O)cc1)C(=O)N[C@@H](CCCNC(=N)N)C(=O)N[C@@H](CCC(N)=O)C(=O)N[C@@H](CCCCN)C(=O)N[C@H](C(=O)O)C(C)C)C(C)C (stereo partly shown) [G-KV21] (HELM PEPTIDE1{G.F.L.S.K.S.L.V.F.W.Q.E.E.[CS(=O)CC[C@H](N[*:1])C(=O)[*:2]].E.L.Y.R.Q.K.V}$$$$V2.0)	significantly inhibit the cytokine release	–	mediated with scavenger receptors (SR) A (SR-A) and BI (SR-B1) with SR-A being the predominant mediator	enhances in vitro macrophage endocytosis	reduce macrophage infiltration into the tumor	significantly inhibits the tumor growth	protect mice from LPS-induced septic shock and prolongs survival of septic mice
